Laboratory results published in US10973925B2, “Methods and compositions for theranostic nanoparticles” (University of Central Florida Research Foundation, Inc., priority 2015, dated 2021).
“Also recorded” adds a separate entry of the source. Residues, ends and D or L forms follow the SMILES beside them.

Assays:
PSMA(+) PC3 tumors = details: two week experiment (FIG. 22D)
Description: FIG. 22A depicts an image of mice that were injected subcutaneously (SC) with PSMA(+) (right flank) or PSMA(−) (left flank) PCa tumor cells. Upon tumor detection (˜2 weeks), the mice were injected intravenously (IV) with PEG-(FOL)-HBPE-NPs (2 mg/kg/dose) containing a near IR dye (FIG. 22A) or CT20p (FIG. 22B). Mice were imaged after 24 hours (FIG. 22A) or sacrificed after 10 days (FIG. 22B). […] FIG. 22D is a graph that summarizes a two week experiment in which mice (n=5) bearing PSMA+ tumors (SC) were IV injected once per week with FOL-HBPE-NPs (2 mg/kg/dose) that were empty or had CT20p and were compared to COOH-NPs (untargeted) with CT20p or FOL-targeted doxorubicin (DOX). *p<0.05. The mice were euthanized before the tumors ulcerated.

normal cells = assay: CT20p in normal cells / control epithelial cell line; format: cell-based
Description: (§1) Recently, a mitotoxic peptide that kills cancer cells was discovered. […] Cell death (anoikis), indicated by membrane asymmetry, was detectable in cancer cells by 48 hours (FIG. 18J). […] These findings indicate that CT20p impairs cancer cell invasiveness through its actions on mitochondria and the cytoskeleton, which causes detachment-induced cell death.

cancer cells [1] = assay: CT20p activities in cancer cells (timeline); format: cell-based
Description: FIGS. 18A-18J illustrate a timeline of CT20p activities in cancer cells. […] Gates are N, necrotic; V, viable; A, apoptotic. Percentages are V (black) and N+A (red). FIG. 18E is a graph showing that by 6 hours, cells detach from the substrate (fibronectin). Such cell detachment was measured using a crystal violet adhesion assay.
as §1

[2] = tested on: PSMA-expressing PCa cells; assay: Effects of CT20p upon cell adhesion and anoikis; format: cell-based
Description: An essential activity that promotes the invasiveness of metastatic cells is rearrangement of the cytoskeleton, which can be linked to integrin signaling. […] At selected time points, PCa cells (Table 1) as well as control cells were treated with Mitotracker Red to visualize mitochondria and then were fixed on coverslips for staining with Alexa Fluor™ 647 phalloidin, a high-affinity F-actin probe, or Deoxyribonuclease I, Alexa Fluor™ 488-conjugate for G-actin for imaging by confocal microscopy (Zeiss 710). To examine how integrin signaling was impaired by CT20p, the surface expression of integrins detected with fluorescence-conjugated antibodies (β1, CD29 and αVβ3, CD51/61) by flow cytometry, was examined. Levels of additional integrins (αV or α5) were also evaluated by immunoblotting cell lysates. To determine whether cell detachment and the reduction in integrin levels could activate anoikis, the CytoSelect® 96-well Anoikis Assay Kit was used and standard assays of cell migration and invasion were performed. Additionally, to test the effects of CT20p under conditions of directed migration, the cells described above were treated with conditioned media from 3T3 cells, which contains chemotactic factors.

cells = details: cited from earlier work
cancer cells [3] = details: expression or introduction of CT20p in cancer cells; cited from earlier work
[4] = tested on: PCa primary tumors and metastatic lesions
Description: Results were compared with those obtained with free doxorubicin or folate-ss-doxorubicin. Again, the lead HBPE-NP preparations from Experiment 2 were used. Male SCID mice were used that are either intact or castrated and treated with testosterone (SC) or DHT pellet. SCID mice were injected SC with luciferase expressing LNCaP cells and, upon tumor growth, D-luciferin was injected prior to imaging (IVIS, Perkin Elmer). In all experiments, NPs without targeting ligand or without CT20p were used as controls. Mice were injected once every week, for 3-4 weeks, with control DFO-HBPE-NPs or PSMA-targeted DFO-HBPE(CT20p)-NPs. Tumor growth was monitored by measuring the tumor size using a caliper or by ultrasound as well as by bio-luminescence as described above. In addition, blood was collected for weekly PSA measurements (with a commercially available ELISA), using the value prior to therapy as a baseline. The tumors were followed for 6 weeks or until reaching 1.5 cm in size (whichever came first). At experimental endpoints, remaining tumor tissue, as well as liver, spleen, kidney, lungs and brain, were collected and examined by immunohistochemistry (using J591 to identify PSMA) and also qRT-PCR and quantitative Western Blot for PSMA levels in the tumor to correlates with response to the targeted therapy. […]

macrophages (RAW cells) = assay: Cell death of non-transformed cells (Sytox analysis); format: cell-based
Description: FIGS. 21A-21J show dose- (FIGS. 21A, 21C) and time- (FIGS. 21D, 21F) dependent cytotoxicity assay of PCa cells treated with Folate.HBPE(Dil)-NPs. PCa Cells: LNCap (FIGS. 21A, 21D), PSMA(+) PC3 (FIGS. 21B, 21E) and PC3 (FIGS. 21C, 21F). […] V, viable; N, necrotic, A, apoptotic.
To study any effect that folate-HBPE (CT20p)-NPs may have on non-transformed cells, macrophages (RAW cells) were incubated with the folate-HBPE(CT20p)-NPs and cell death was assessed.

[5] = tested on: PSMA positive LNCaP cells; details: LNCaP cell viability
Description: The amount of encapsulated abiraterone was estimated following a reported protocol and defined as encapsulation efficiency.

[6] = by 24 hours post-CT20p treatment

CC[C@H](C)[C@H](NC(=O)[C@@H](NC(=O)[C@H](CC(C)C)NC(=O)[C@H](CO)NC(=O)[C@H](C)NC(=O)[C@@H](NC(=O)[C@H](CC(C)C)NC(=O)[C@@H](NC(=O)CNC(=O)[C@H](C)NC(=O)[C@@H](NC(=O)[C@H](Cc1ccccc1)NC(=O)[C@@H](NC(=O)[C@@H](NC(=O)[C@@H](NC(C)=O)C(C)C)[C@@H](C)O)[C@@H](C)CC)C(C)C)C(C)C)[C@@H](C)O)[C@@H](C)O)C(=O)N[C@@H](Cc1c[nH]c2ccccc12)C(=O)N[C@@H](CCCCN)C(=O)N[C@@H](CCCCN)C(=O)N[C@@H](CCSC)C(=O)NCC(N)=O [CT20p] (Ac-VTIFVAGVLTASLTIWKKMG-NH2)
efficacy in PSMA+ tumors (PSMA(+) PC3 tumors): more effective than drugs like Doxoyrubucin | mitochondrial localization, autophagosome formation or cell death (normal cells; control epithelial cell line): not observed | cell death (normal cells; normal cells (FIG. 19C)): minimal cell death was detected | concentration range in which the peptide works (cancer cells [1]): nanomolar range | ROS production (cancer cells [1]; [6]): increased ROS production | autophagy (cancer cells [1]; [6]): induction of autophagy | caspases (cancer cells [1]; [6]): activation of caspases | mitochondrial membrane effect (cancer cells [1]; cancer cells): hyperpolarization of the mitochondrial membrane and fusion-like aggregation; also recorded: mitochondrial membranes hyperpolarize and fuse | β1 integrin surface level (cancer cells [1]; prior to cell detachment): decreased surface expression of β1 integrin; also recorded: membrane levels of β1 integrin decreased | co-localization of peptide with mitochondria (cancer cells [1]; ˜3.4 nM CT20p in NPs, cancer cells): co-localization of the peptide (red) with mitochondria (green) was detected | F-actin and integrin signaling [2]: loss of F-actin and reduced integrin signaling | uptake by cells (cells): not taken up by cells | block of cell death by Bcl-2 overexpression, Bax deficiency or caspase inhibition (cancer cells [3]): minimally blocked it

COc1cccc2c1C(=O)c1c(O)c3c(c(O)c1C2=O)C[C@@](O)(C(=O)CO)C[C@@H]3O[C@H]1C[C@H](N)[C@H](O)[C@H](C)O1 [Doxorubicin]
tumor regression ([4]; also castration and hormone signaling conditions): Tumor regression also occurs | off-target toxicity ([4]; mouse, in vivo): off-target toxicity was observed | toxicity to macrophages (macrophages (RAW cells)): death of macrophages was observed

C[C@]12CC[C@H](O)CC1=CC[C@@H]1[C@@H]2CC[C@]2(C)C(c3cccnc3)=CC[C@@H]12 [abiraterone]
IC50 [5]: 2550 nM
